According to patent US12077503B2, “Substituted cyclic amides and their use as herbicides” (FMC CORPORATION, priority 2015, dated 2024):

How the values were obtained:
Format in all cases: in vivo
[1] = tested on: sedge, umbrella (small-flower umbrella sedge, Cyperus difformis); assay: Test C flooded paddy test; details: Flood, 0 is no effect, 100 is complete control
Method in brief: (§1)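 Test compounds were dosed straight into the flood water of pots holding 2-leaf-stage plants, with water kept 3 cm above the soil. Greenhouse plants were scored visually against controls after 13 to 15 d, from 0 (no effect) to 100 (complete control).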

[2] = tested on: barnyardgrass (Echinochloa crus-galli); assay: Test C flooded paddy test; details: Flood, 0 is no effect, 100 is complete control
Method in brief: as §1

[3] = tested on: ducksalad (Heteranthera limosa); assay: Test C flooded paddy test; details: Flood, 0 is no effect, 100 is complete control
Method in brief: as §1

rice (Oryza sativa) = assay: Test C flooded paddy test; details: Flood, 0 is no effect, 100 is complete control
Method in brief: as §1

[4] = tested on: pigweed (Amaranthus retroflexus); assay: Test A postemergence
Method in brief: (§2)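 Preemergence directed soil spray on seeded pots, or postemergence application to plants 2–10 cm, one- to two-leaf. Solvent mixture non-phytotoxic, with surfactant. Scored ~10 d later, visually, 0–100 vs untreated.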

[5] = tested on: wheat (Triticum aestivum); assay: Test A postemergence
Method in brief: as §2

[6] = tested on: barnyardgrass (Echinochloa crus-galli); assay: Test A postemergence
Method in brief: as §2

[7] = tested on: velvetleaf (Abutilon theophrasti); assay: Test A postemergence
Method in brief: as §2

corn (Zea mays) [8] = assay: Test A postemergence
Method in brief: as §2

[9] = tested on: morningglory (Ipomoea spp.); assay: Test A postemergence
Method in brief: as §2

[10] = tested on: giant foxtail (Setaria faberii); assay: Test A postemergence
Method in brief: as §2

[11] = tested on: crabgrass, large (Digitaria sanguinalis); assay: Test A postemergence
Method in brief: as §2

[12] = tested on: pigweed (Amaranthus retroflexus); assay: Test A preemergence; details: for Plant response rating, Pigweed: 125 g ai/ha, preemergence, 0 to 100 scale (0 no effect, 100 complete control); for Pigweed plant response rating (0 to 100 scale): Preemergence, 500 g ai/ha, 0 is no effect, 100 is complete control
[13] = tested on: wheat (Triticum aestivum); assay: Test A preemergence; details: for Plant response rating, Wheat: 125 g ai/ha, preemergence, 0 to 100 scale (0 no effect, 100 complete control); for Wheat plant response rating (0 to 100 scale): Preemergence, 500 g ai/ha, 0 is no effect, 100 is complete control
Method in brief: as §2

[14] = tested on: barnyardgrass (Echinochloa crus-galli); assay: Test A preemergence; details: for Plant response rating, Barnyardgrass: 125 g ai/ha, preemergence, 0 to 100 scale (0 no effect, 100 complete control); for Barnyardgrass plant response rating (0 to 100 scale): Preemergence, 500 g ai/ha, 0 is no effect, 100 is complete control
Method in brief: as §2

[15] = tested on: velvetleaf (Abutilon theophrasti); assay: Test A preemergence; details: for Plant response rating, Velvetleaf: 125 g ai/ha, preemergence, 0 to 100 scale (0 no effect, 100 complete control); for Velvetleaf plant response rating (0 to 100 scale): Preemergence, 500 g ai/ha, 0 is no effect, 100 is complete control
Method in brief: as §2

corn (Zea mays) [16] = assay: Test A preemergence; details: for Plant response rating, Corn: 125 g ai/ha, preemergence, 0 to 100 scale (0 no effect, 100 complete control); for Corn plant response rating (0 to 100 scale): Preemergence, 500 g ai/ha, 0 is no effect, 100 is complete control
Method in brief: as §2

[17] = tested on: morningglory (Ipomoea spp.); assay: Test A preemergence; details: for Plant response rating, Morningglory: 125 g ai/ha, preemergence, 0 to 100 scale (0 no effect, 100 complete control); for Morningglory plant response rating (0 to 100 scale): Preemergence, 500 g ai/ha, 0 is no effect, 100 is complete control
Method in brief: as §2

[18] = tested on: giant foxtail (Setaria faberii); assay: Test A preemergence; details: for Plant response rating, Foxtail, Giant: 125 g ai/ha, preemergence, 0 to 100 scale (0 no effect, 100 complete control); for Foxtail, Giant plant response rating (0 to 100 scale): Preemergence, 500 g ai/ha, 0 is no effect, 100 is complete control
Method in brief: as §2

[19] = tested on: crabgrass, large (Digitaria sanguinalis); assay: Test A preemergence; details: for Plant response rating, Crabgrass, Large: 125 g ai/ha, preemergence, 0 to 100 scale (0 no effect, 100 complete control); for Crabgrass, Large plant response rating (0 to 100 scale): Preemergence, 500 g ai/ha, 0 is no effect, 100 is complete control
Method in brief: as §2

[20] = 500 g ai/ha, postemergence, 0 to 100 scale, 0 no effect, 100 complete control
[21] = Postemergence, 125 g ai/ha, visual injury, 0 to 100 scale (0 no effect, 100 complete control), approx. 10 d

O=C1NCC(c2ccoc2)C1C(=O)Nc1ccccc1F (racemic) [Compound 356]
0: Plant response rating (scale of 0 to 100), Sedge, Umbrella ([1]; 62 g ai/ha) | Plant response rating (scale of 0 to 100), Sedge, Umbrella ([1]; 250 g ai/ha) | Plant response rating (scale of 0 to 100), Barnyardgrass ([2]; 62 g ai/ha) | Plant response rating (scale of 0 to 100), Barnyardgrass ([2]; 250 g ai/ha) | Plant response rating (scale of 0 to 100), Ducksalad ([3]; 62 g ai/ha) | Plant response rating (scale of 0 to 100), Ducksalad ([3]; 250 g ai/ha) | Plant response rating (scale of 0 to 100), Rice (rice (Oryza sativa); 62 g ai/ha) | Plant response rating (scale of 0 to 100), Rice (rice (Oryza sativa); 250 g ai/ha) | Plant response rating, Pigweed [4, 20] | Plant response rating, Pigweed [4, 21] | Plant response rating, Wheat [5, 20] | Plant response rating, Wheat [5, 21] | Plant response rating, Barnyardgrass [6, 20] | Plant response rating, Barnyardgrass [6, 21] | Plant response rating, Velvetleaf [7, 20] | Plant response rating, Velvetleaf [7, 21] | Plant response rating, Corn (corn (Zea mays) [8]; [20]) | Plant response rating, Corn (corn (Zea mays) [8]; [21]) | Plant response rating, Morningglory [9, 20] | Plant response rating, Morningglory [9, 21] | Plant response rating, Foxtail, Giant [10, 20] | Plant response rating, Foxtail, Giant [10, 21] | Plant response rating, Crabgrass, Large [11, 20] | Plant response rating, Crabgrass, Large [11, 21] | Plant response rating, Pigweed [12] | Pigweed plant response rating (0 to 100 scale) [12] | Plant response rating, Wheat [13] | Wheat plant response rating (0 to 100 scale) [13] | Plant response rating, Barnyardgrass [14] | Barnyardgrass plant response rating (0 to 100 scale) [14] | Plant response rating, Velvetleaf [15] | Velvetleaf plant response rating (0 to 100 scale) [15] | Plant response rating, Corn (corn (Zea mays) [16]) | Corn plant response rating (0 to 100 scale) (corn (Zea mays) [16]) | Plant response rating, Morningglory [17] | Morningglory plant response rating (0 to 100 scale) [17] | Plant response rating, Foxtail, Giant [18] | Foxtail, Giant plant response rating (0 to 100 scale) [18] | Plant response rating, Crabgrass, Large [19] | Crabgrass, Large plant response rating (0 to 100 scale) [19]

O=C1NCC(c2ccoc2)C1C(=O)Nc1ccccc1C(F)(F)F (racemic) [Compound 364]
0: Plant response rating (scale of 0 to 100), Sedge, Umbrella ([1]; 31 g ai/ha) | Plant response rating (scale of 0 to 100), Sedge, Umbrella ([1]; 62 g ai/ha) | Plant response rating (scale of 0 to 100), Sedge, Umbrella ([1]; 125 g ai/ha) | Plant response rating (scale of 0 to 100), Sedge, Umbrella ([1]; 250 g ai/ha) | Plant response rating (scale of 0 to 100), Barnyardgrass ([2]; 31 g ai/ha) | Plant response rating (scale of 0 to 100), Barnyardgrass ([2]; 62 g ai/ha) | Plant response rating (scale of 0 to 100), Barnyardgrass ([2]; 125 g ai/ha) | Plant response rating (scale of 0 to 100), Barnyardgrass ([2]; 250 g ai/ha) | Plant response rating (scale of 0 to 100), Ducksalad ([3]; 31 g ai/ha) | Plant response rating (scale of 0 to 100), Ducksalad ([3]; 62 g ai/ha) | Plant response rating (scale of 0 to 100), Ducksalad ([3]; 125 g ai/ha) | Plant response rating (scale of 0 to 100), Ducksalad ([3]; 250 g ai/ha) | Plant response rating (scale of 0 to 100), Rice (rice (Oryza sativa); 31 g ai/ha) | Plant response rating (scale of 0 to 100), Rice (rice (Oryza sativa); 62 g ai/ha) | Plant response rating (scale of 0 to 100), Rice (rice (Oryza sativa); 125 g ai/ha) | Plant response rating (scale of 0 to 100), Rice (rice (Oryza sativa); 250 g ai/ha) | Plant response rating, Pigweed [4, 20] | Plant response rating, Pigweed [4, 21] | Plant response rating, Wheat [5, 20] | Plant response rating, Wheat [5, 21] | Plant response rating, Barnyardgrass [6, 20] | Plant response rating, Barnyardgrass [6, 21] | Plant response rating, Velvetleaf [7, 20] | Plant response rating, Corn (corn (Zea mays) [8]; [20]) | Plant response rating, Corn (corn (Zea mays) [8]; [21]) | Plant response rating, Morningglory [9, 20] | Plant response rating, Morningglory [9, 21] | Plant response rating, Foxtail, Giant [10, 20] | Plant response rating, Foxtail, Giant [10, 21] | Plant response rating, Crabgrass, Large [11, 20] | Plant response rating, Crabgrass, Large [11, 21] | Plant response rating, Pigweed [12] | Pigweed plant response rating (0 to 100 scale) [12] | Plant response rating, Wheat [13] | Wheat plant response rating (0 to 100 scale) [13] | Plant response rating, Barnyardgrass [14] | Barnyardgrass plant response rating (0 to 100 scale) [14] | Plant response rating, Velvetleaf [15] | Velvetleaf plant response rating (0 to 100 scale) [15] | Plant response rating, Corn (corn (Zea mays) [16]) | Corn plant response rating (0 to 100 scale) (corn (Zea mays) [16]) | Plant response rating, Morningglory [17] | Morningglory plant response rating (0 to 100 scale) [17] | Plant response rating, Foxtail, Giant [18] | Foxtail, Giant plant response rating (0 to 100 scale) [18] | Plant response rating, Crabgrass, Large [19] | Crabgrass, Large plant response rating (0 to 100 scale) [19]
